Assay results: patent US6586596B2, “Acetylcholine enhancers” (priority 1998, dated 2003)

What was measured:
[1] = tested on: extracellular levels of ACh in striatum; experiment: ACh release in striatum, microdialysis in freely moving rats; assay type: in vivo; conditions: for ACh content in perfusate increased up to: striatum, young rats (2 month-old Wistar)
Method: ACh content in perfusate obtained from striatum (Bregma, A: 0.2 mm, L: 3.0 mm, H: 4.0 mm) of brain were continuously detected by means of HPLC and ECD through the microdialysis system using freely moving rats. See Messamore, E., et al, 32 Neuropharmacol. […] After an equilibration period of more than 2 hours, five fractions were allowed to obtain basal ACh content. Compounds were injected i.p., and thereafter, a microdialytic analysis was conducted for 3 hours.

5HT3 receptor = target: T1, 5HT3 receptor (Rattus norvegicus, UniProt P35563); experiment: Ex vivo binding of 5HT3 receptors, (3H)-zacopride autoradiography of brain sections; assay type: in vivo, Sprague-Dawley rats; conditions: 10 mg/kg i.p., 30 minutes, amygdala, 0.5 nM (3H)-zacopride
T1 construct: from tissue; host or cells: rat brain sections (amygdala)
T1 sequence (P35563 24-483): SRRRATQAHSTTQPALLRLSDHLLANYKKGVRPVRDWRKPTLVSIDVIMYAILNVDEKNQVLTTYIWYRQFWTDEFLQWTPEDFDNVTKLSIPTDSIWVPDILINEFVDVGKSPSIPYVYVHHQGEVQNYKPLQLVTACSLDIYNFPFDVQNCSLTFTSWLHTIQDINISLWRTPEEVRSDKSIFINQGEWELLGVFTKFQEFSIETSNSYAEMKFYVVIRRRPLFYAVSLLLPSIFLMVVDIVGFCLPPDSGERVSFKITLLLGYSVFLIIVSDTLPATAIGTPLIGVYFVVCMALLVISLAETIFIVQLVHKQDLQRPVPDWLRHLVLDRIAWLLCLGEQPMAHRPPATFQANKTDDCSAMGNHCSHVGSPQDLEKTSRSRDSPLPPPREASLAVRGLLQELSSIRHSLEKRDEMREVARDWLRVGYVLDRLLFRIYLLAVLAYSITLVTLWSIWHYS
Method: Animals (Sprague-Dawley rats) were injected intraperitoneally with 10 mg/kg Cm. A (in 90% ethanol, 10% water, vehicle) (n=3) or vehicle (n=3). After thirty minutes animals were sacrificed and brains were rapidly dissected and frozen in isopentane maintained at −42° C. Sections (horizontal and coronal) were prepared on a cryostat and maintained at −20° C.
Brain sections were removed from storage and thawed at room temperature for 30 minutes. Total 5HT3 receptor binding was measured in sections incubated with 0.5 nM (^3H)-zacopride (Amerhsam; zacorpide is a 5-HT3 selective ligand) in 50 mM HEPES/TRIS buffer. Nonspecific binding was determined in adjacent sections incubated in the presence of radioligand and 500 nM 5-HT. After a 10 minute incubation at room temperature, sections were washed in icecold buffer (2×1 minute) followed by a 10 second rinse in ice-cold distilled water. Sections were then dried in a stream of cold air overnight. After drying, sections were exposed to x-ray film (Kodak Hyperfilm) and exposed for 4 months.
Autoradiograms were quantified using an automated image analysis system, DAGE camera IMAGE software. Mean optical density measurements were obtained from four individual measurements per group, control (vehicle injected) and Cm. A; background measurements were obtained from an area of x-ray on which no tissue was exposed. […]

[2] = tested on: scopolamine-induced amnesia; experiment: Passive avoidance, scopolamine-induced memory impairment; assay type: in vivo, male Wistar rats; conditions: 0.1, 0.3 and 3.0 mg/kg oral, 30 minutes before acquisition trial; scopolamine 0.5 mg/kg i.p.
Method: (§1) Cutoff latency was set at 600 seconds.
Rats were treated i.p. with scopolamine (0.5 mg/kg) 15 minutes before the acquisition trial.

[3] = tested on: cycloheximide-induced amnesia; experiment: Passive avoidance, cycloheximide-induced memory impairment; assay type: in vivo, male Wistar rats; conditions: oral, 30 minutes before acquisition trial; cycloheximide 1.5 mg/kg s.q.
Method: as §1
Rats were treated s.q. with cycloheximide (1.5 mg/kg), a protein synthesis inhibitor, immediately after the electric shock.

[4] = tested on: scopolamine-induced spatial memory deficit; experiment: Eight-arm radial maze, scopolamine-induced deficit in spatial memory; assay type: in vivo, male Wistar rats; conditions: oral dose 0.03~0.3 mg/kg; scopolamine 0.5 mg/kg i.p.
Method: (§2) Using male Wistar rats, the anti-amnestic effects of Cm.A on spatial cognition was evaluated using an eight-arm radial maze task. After repeated trials for spatial cognition, memory-established rats (which had more than 7 correct choices and less than one error) were utilized.

SEP-lesioned rats = experiment: Eight-arm radial maze, medial septal nucleus (SEP) lesion-induced deficit; assay type: in vivo, male Wistar rats; conditions: 3.0 mg/kg/day, repeated treatment for 2 weeks
Method: as §2
SEP (Bregma, A: 0.2 mm, L: −1.0 mm, H: −5.8 mm) was lesioned by microinjection with ibotenic acid (10 μg) similarly to that of the BF lesion of Example 4A(3).

healthy volunteers = experiment: Human Phase IA single-dose, dose-escalation clinical trial; assay type: in vivo; conditions: single oral dose 2 mg to 180 mg
Method: A Phase IA clinical trial was conducted as a single-dose, double-blind, placebo-controlled, dose-escalation study. This study investigated the safety and pharmacokinetic profile of the particularly preferred salt (depicted in FIG. 1B; N-[2-( 1-benzylpiperizin-4-yl)ethyl]-2,3-dihydro-9-methoxy-1H-pyrrolo[3,4-b]quinolin-1-one hemifumarate) of the compound of FIG. 1A, N-[2-(1-benzylpiperzin-4-yl)ethyl]-2,3-dihydro-9-methoxy-1H-pyrrolo[3,4-b] quinolin-1-one. The compound was administered orally in doses from 2 mg to 180 mg to healthy volunteers (male and female), aged 50-75 years, under fasting conditions. A total of 68 individuals were enrolled in the study and completed the trial. A maximum tolerated dose was not identified in this study, i. e., even at 180 mg, there were insufficient adverse events to establish a true “maximum tolerated dose” in this study.

BF-lesioned rats [5] = experiment: Water maze, BF lesion-induced deficit in spatial learning; conditions: oral; Cm.A 0.3, 1.0 and 3.0 mg/kg/day, THA 1.0 mg/kg/day, E2020 0.3 and 1.0 mg/kg/day
Method: For each training trial, the rat was placed in the water (22° C.) such that the animal faced the wall of a circular pool (150 cm in diameter, 45 cm in height), and started at one of five starting points (selected randornly). In each trial, the latency period to escape onto the hidden platform (fixed in the middle of one quadrant, 2 cm below the surface of water) was recorded. These procedures were repeated once or twice a day during the experimental period.

BF-lesioned rats [6] = experiment: Passive avoidance, basal forebrain (BF) lesion-induced memory impairment
Method: Using male Wistar rats, passive-avoidance studies were conducted using a step through-type, 2 compartment (light and dark) box. In the acquisition trial, at the time when the animal entered the dark area, a guillotine door was closed and an electric shock (0.5˜0.8 mA for 3 seconds) was delivered to the animal. After 24 hours, the retention trial was conducted: the rat was put in the light area and the time until the animal entered the dark area (latency) was measured. Cutoff latency was set at 600 seconds. Test substances were orally administered 30 minutes before the acquisition trial.
After 2 weeks, the acquisition trial was conducted.

## COc1c2c(nc3ccccc13)CN(CCC1CCN(Cc3ccccc3)CC1)C2=O [Cm.A, 2-[2-(1-benzylpiperizin-4-yl)ethyl]-2,3-dihydro-9-methoxy-1H-pyrrolo[3,4-b]quinolin-1-one hemifumarate]
[1]; striatum study, young rats, i.p., data not shown
  centrally acting cholinergic symptoms (tremor, chewing and yawning): few centrally acting cholinergic symptoms
[1]; 10 mg/kg i.p.
  ACh content in perfusate increased up to: 131%
[1]; 30 mg/kg i.p.
  ACh content in perfusate increased up to: 369%
5HT3 receptor
  occupancy of 5HT3 receptor sites within the brain: occupies 5HT3 receptor sites within the brain
[2]
  latency in retention trial, reversal of scopolamine effect: significantly reversed the effect of scopolamine
[3]
  latency in retention trial, cycloheximide-induced amnesia: prolonged the shortened latency induced by cycloheximide in a nondose dependent manner
[4]
  deficit of spatial cognition (correct choices, errors): significantly improved the deficit of spatial cognition
SEP-lesioned rats
  deficit of spatial memory: significantly improved the deficit of spatial memory
Healthy volunteers
  safety parameters (vital signs, ECG, blood chemistry, hematology, urinalysis, physical examination): no clinically significant changes
  serious adverse events: no serious adverse events reported
Healthy volunteers; fasting, aged 50-75 years
  maximum tolerated dose: > 180 mg
Healthy volunteers; 68 individuals enrolled
  mild adverse events: seven mild adverse events
BF-lesioned rats [5]
  deficit of spatial learning (escape latency): improved the deficit of spatial learning
BF-lesioned rats [6]; 0.03~0.3 mg/kg/day for 1 week
  memory deficit induced by BF-lesion, repeated doses: improvement in recovery as potently as or more potently than THA and E2020
BF-lesioned rats [6]; single dose 0.03~1.0 mg/kg
  memory deficit induced by BF-lesion, single dose: partially, but significantly, recovered the memory deficit
